Source: patent publication US8629132B2, “Kinase inhibitors” (Genosco, priority 2009, dated 2014)

Columns and labels:
[1] = system: TNF-α release in THP-1 cells; assay: SYK dependent TNF-α release assay (IgG stimulation); assay type: cell-based, human
Procedure: Compounds of the present invention are tested for their effects on TNF-α release in human acute monocytic leukimia cell line (THP-1) to illustrate potential efficacy at the cellular level. TNF-α is a cytokine involved in systemic inflammation and is a member of a group of cytokines that stimulate the acute phase reaction. The primary role of TNF-α is in the regulation of immune cells. TNF-α is known to induce apoptotic cell death and inflammation and to inhibit early tumorigenesis and viral replication. Dysregulation and, in particular, overproduction of TNF-α have been implicated in a variety of human diseases, autoimmune disease, inflammation, arthritis and cancer.
Production or release of TNF-α is controlled by type of stimulus to which the cell responds. SYK activity is involved in mediating TNF-α production. When stimulated by IgG, cells increase TNF-α production in a SYK dependent manner (i.e., the SYK dependent pathway). However, when stimulated by lipopolysaccharide (LPS), they produce TNF-α in a SYK independent manner.
Compounds of the invention were tested for their TNF-α release effect on THP-1 cells. For SYK dependent TNF-α release assay (i.e., via IgG stimulation), THP-1 cells derived from human monocytic cells were obtained from the American Type Culture Collection (ATCC, Manassas, Va.). This cell line was maintained with an Roswell Park Memorial Institute (RPMI) medium (GIBCO™) containing 10 fetal bovine serum (FBS; GIBCO™) and 0.05 mM 2-mercaptoethanol. The THP-1 cells were seeded at 1×10^5 cells/100 μL/well into human IgG (10 μg/well, INVITROGENT™)-coated 96 well culture plate, and serially diluted compound was then added. After an 18-hour incubation period at 37° C., supernatants were collected for the determination of the TNF-α level by enzyme-linked immunosorbent assay (ELISA), and the remaining cells were subjected to an MTT (yellow tetrazolium salt) assay to determine the cytotoxic effects of compound.

SRPK3 = molecular target: T1, SRPK3 (Homo sapiens, UniProt Q9UPE1); assay: In vitro kinase inhibition profile (Ambit Biosciences); assay type: binding; conditions: reported as percent control, lower numbers indicate stronger activities
T1 construct: purchased Ambit Biosciences
Procedure: (§1) Up to 518 different kinases have been identified in humans. To determine the scope of inhibitory effects of a representative compound of Formula (I) on known kinases, Compound 82 was tested against 104 commercially available kinases (Ambit Biosciences™). 104 kinases included ABL1(E255K)-phosphorylated, ABL1(T315I)-phosphorylated, ABL1-phosphorylated, ACVR1B, ADCK3, AKT1, AKT2, ALK, AURKA, AURKB, AXL, BMPR2, BRAF, BRAF(V600E), BTK, CDK11, CDK2, CDK3, CDK7, CDK9, CHEK1, CSF1R, CSNK1D, CSNK1G2, DCAMKL1, DYRK1B, EGFR, EGFR(L858R), EPHA2, ERBB2, ERBB4, ERK1, FAK, FGFR2, FGFR3, FLT1, FLT3, FLT4, GSK3B, IGF1R, IKK-α, IKK-β, INSR, JAK2(JH1domain-catalytic), JAK3 (JH1 domain-catalytic), JNK 1, JNK2, JNK3, KIT, KIT(D816V), KIT(V559D,T6701), LKB1, LRRK2, LRRK2(G2019S), MAP3K4, MAPKAPK2, MARKS, MEK1, MEK2, MET, MKNK1, MKNK2, MLK1, MTOR, p38-alpha, p38-beta, PAK1, PAK2, PAK-4, PCTK1, PDGFRA, PDGFRB, PDPK1, PIK3C2B, PIK3CA, PIK3CG, PIM1, PIM2, PIM3, PKAC-alpha, PLK1, PLK3, PLK4, PRKCE, PYK2, RAF1, RET, R10K2, ROCK2, RSK2, SNARK, SRC, SRPK3, SYK, TAK1, TGFBR1, TIE2, TRKA, TSSK1B, TYK2(JH1domain-catalytic), ULK2, VEGFR2, YANK3 and ZAP70.
(§2) Inhibition activity of Compound 82 was reported as percent control where lower numbers indicate stronger activities.

TAK1 = molecular target: T2, TAK1 (Homo sapiens, UniProt O43318); assay: as above; assay type: binding; conditions: reported as percent control, lower numbers indicate stronger activities
T2 construct: purchased Ambit Biosciences
Procedure: as §1, §2

SYK = molecular target: T3, SYK (Homo sapiens, UniProt P43405); assay: as above; assay type: binding; conditions: reported as percent control, lower numbers indicate stronger activities
T3 construct: Purified full-length human SYK, ZAP70, PIM1, PYK2; purchased Carna Biosciences
Procedure: as §1, §2

KIT(D816V) = molecular target: T4, KIT(D816V) (Homo sapiens, UniProt P10721, D816V); assay: as above; assay type: binding; conditions: reported as percent control, lower numbers indicate stronger activities
T4 construct: purchased Ambit Biosciences
Procedure: as §1, §2

RET = molecular target: T5, RET (Homo sapiens, UniProt P07949); assay: as above; assay type: binding; conditions: reported as percent control, lower numbers indicate stronger activities
T5 construct: purchased Ambit Biosciences
Procedure: as §1, §2

KIT(V559D,T6701) = molecular target: T6, KIT(V559D,T6701) (Homo sapiens, UniProt P10721, T670I/V559D); assay: as above; assay type: binding; conditions: reported as percent control, lower numbers indicate stronger activities
T6 construct: purchased Ambit Biosciences
Procedure: as §1, §2

MKNK2 = molecular target: T7, MKNK2 (Homo sapiens, UniProt Q9HBH9); assay: as above; assay type: binding; conditions: reported as percent control, lower numbers indicate stronger activities
T7 construct: purchased Ambit Biosciences
Procedure: as §1, §2

PDGFRB = molecular target: T8, PDGFRB (Homo sapiens, UniProt P09619); assay: as above; assay type: binding; conditions: reported as percent control, lower numbers indicate stronger activities
T8 construct: purchased Ambit Biosciences
Procedure: as §1, §2

T7 sequence (Q9HBH9 whole entry): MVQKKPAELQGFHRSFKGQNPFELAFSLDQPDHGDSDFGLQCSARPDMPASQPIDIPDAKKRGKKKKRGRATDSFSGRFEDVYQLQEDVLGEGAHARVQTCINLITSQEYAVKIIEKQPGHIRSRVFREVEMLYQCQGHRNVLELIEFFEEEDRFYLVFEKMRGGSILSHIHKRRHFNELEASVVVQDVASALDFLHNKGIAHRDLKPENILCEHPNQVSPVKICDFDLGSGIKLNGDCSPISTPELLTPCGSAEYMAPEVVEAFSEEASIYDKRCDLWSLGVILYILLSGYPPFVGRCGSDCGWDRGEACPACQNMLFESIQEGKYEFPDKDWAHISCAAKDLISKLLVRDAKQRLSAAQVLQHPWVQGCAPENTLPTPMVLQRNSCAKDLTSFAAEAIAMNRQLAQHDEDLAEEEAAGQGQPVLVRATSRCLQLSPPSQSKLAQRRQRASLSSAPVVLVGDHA
T5 sequence (P07949 29-1114): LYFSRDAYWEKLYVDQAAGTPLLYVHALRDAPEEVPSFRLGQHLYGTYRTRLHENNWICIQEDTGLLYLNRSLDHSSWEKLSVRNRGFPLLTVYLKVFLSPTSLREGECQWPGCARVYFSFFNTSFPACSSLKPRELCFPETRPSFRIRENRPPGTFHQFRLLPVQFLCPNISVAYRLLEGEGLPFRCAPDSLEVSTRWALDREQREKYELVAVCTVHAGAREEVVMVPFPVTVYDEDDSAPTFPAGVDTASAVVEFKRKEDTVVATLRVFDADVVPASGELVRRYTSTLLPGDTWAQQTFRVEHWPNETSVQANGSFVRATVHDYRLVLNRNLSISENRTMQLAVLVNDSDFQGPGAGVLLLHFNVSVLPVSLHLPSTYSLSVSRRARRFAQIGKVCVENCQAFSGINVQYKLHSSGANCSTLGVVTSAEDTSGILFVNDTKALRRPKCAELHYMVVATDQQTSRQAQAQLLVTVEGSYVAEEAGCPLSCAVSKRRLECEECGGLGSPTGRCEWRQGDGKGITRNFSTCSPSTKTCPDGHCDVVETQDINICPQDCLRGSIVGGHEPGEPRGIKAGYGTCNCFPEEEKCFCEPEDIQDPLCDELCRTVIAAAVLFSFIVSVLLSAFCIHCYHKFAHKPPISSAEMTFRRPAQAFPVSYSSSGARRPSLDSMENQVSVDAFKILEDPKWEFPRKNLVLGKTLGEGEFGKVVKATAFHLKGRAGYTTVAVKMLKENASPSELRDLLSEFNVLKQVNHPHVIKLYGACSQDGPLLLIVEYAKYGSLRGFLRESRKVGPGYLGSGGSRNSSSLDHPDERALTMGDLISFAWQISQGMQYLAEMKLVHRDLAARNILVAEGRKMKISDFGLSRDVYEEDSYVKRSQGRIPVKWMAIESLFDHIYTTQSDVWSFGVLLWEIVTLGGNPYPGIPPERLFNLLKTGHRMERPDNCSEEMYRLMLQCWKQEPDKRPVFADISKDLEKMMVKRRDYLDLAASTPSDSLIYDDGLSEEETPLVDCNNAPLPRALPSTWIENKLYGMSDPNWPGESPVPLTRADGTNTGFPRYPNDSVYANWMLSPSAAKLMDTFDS
T4 sequence (P10721 26-976 D816V): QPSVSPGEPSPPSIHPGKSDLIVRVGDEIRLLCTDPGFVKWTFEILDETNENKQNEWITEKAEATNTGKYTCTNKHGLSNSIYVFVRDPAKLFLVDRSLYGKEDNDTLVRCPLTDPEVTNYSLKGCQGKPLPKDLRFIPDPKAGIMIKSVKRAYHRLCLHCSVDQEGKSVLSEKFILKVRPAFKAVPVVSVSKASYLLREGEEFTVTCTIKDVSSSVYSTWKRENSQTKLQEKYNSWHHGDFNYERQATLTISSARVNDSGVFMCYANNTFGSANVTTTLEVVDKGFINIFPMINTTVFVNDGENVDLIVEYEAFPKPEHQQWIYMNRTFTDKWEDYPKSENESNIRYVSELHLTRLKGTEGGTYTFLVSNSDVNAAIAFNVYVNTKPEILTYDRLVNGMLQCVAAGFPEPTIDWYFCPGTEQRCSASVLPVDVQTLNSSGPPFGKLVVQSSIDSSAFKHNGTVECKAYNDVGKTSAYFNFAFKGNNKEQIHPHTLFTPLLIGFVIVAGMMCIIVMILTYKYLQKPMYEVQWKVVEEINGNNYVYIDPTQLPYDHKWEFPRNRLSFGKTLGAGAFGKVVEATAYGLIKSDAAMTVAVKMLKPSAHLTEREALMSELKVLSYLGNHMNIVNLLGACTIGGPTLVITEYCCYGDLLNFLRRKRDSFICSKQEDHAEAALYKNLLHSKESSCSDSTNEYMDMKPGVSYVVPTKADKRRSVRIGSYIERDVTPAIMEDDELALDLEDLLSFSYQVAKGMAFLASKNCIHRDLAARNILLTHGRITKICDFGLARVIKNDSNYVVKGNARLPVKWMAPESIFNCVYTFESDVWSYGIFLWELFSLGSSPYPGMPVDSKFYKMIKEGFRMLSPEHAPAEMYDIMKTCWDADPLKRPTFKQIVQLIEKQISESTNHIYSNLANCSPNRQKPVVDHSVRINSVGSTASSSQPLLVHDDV
T8 sequence (P09619 33-1106): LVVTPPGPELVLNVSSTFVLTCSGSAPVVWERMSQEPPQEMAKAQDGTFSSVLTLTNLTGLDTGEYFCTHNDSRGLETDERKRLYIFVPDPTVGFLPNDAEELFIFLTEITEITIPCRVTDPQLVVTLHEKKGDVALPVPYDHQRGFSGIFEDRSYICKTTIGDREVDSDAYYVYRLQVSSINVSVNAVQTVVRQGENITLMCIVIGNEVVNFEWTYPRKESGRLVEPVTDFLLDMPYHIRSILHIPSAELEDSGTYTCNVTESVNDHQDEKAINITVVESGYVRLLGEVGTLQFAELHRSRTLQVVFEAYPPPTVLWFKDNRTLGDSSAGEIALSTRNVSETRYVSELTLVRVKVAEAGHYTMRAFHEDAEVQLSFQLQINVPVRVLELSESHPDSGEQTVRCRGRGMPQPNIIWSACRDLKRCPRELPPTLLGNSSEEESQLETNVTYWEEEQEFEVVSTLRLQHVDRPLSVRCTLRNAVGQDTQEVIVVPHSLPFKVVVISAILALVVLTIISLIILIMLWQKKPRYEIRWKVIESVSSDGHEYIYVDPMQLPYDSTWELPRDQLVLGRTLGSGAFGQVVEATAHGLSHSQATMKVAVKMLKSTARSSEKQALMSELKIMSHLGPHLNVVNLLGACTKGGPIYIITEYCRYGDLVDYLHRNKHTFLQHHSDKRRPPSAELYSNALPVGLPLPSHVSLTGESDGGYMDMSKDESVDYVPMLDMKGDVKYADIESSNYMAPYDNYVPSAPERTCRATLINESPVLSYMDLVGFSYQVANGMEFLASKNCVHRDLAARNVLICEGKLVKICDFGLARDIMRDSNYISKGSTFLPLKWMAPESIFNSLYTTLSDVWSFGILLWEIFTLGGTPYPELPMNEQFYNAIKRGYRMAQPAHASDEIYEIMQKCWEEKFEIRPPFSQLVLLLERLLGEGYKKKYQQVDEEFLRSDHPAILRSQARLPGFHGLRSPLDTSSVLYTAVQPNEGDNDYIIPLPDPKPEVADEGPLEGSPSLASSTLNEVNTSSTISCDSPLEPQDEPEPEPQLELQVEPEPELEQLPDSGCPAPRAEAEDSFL
T6 sequence (P10721 26-976 V559D/T670I): as the sequence (P10721 26-976 D816V) above, with V534D, T645I, V791D counted along it
T2 sequence (O43318 whole entry): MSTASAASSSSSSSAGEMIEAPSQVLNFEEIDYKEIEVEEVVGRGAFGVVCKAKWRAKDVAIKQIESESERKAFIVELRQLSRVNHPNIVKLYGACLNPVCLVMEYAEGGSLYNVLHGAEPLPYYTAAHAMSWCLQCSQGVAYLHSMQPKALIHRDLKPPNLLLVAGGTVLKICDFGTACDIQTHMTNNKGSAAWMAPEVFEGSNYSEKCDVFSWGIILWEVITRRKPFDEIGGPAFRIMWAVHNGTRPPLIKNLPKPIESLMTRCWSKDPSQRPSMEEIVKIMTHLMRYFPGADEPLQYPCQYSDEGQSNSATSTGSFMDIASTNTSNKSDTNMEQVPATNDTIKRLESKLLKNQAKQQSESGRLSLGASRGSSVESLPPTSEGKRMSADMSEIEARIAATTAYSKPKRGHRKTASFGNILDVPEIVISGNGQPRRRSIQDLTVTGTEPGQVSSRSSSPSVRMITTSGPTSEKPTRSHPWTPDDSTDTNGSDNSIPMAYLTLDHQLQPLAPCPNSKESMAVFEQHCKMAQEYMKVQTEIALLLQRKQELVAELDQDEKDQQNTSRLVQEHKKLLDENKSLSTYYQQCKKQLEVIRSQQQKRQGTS
T1 sequence (Q9UPE1 whole entry): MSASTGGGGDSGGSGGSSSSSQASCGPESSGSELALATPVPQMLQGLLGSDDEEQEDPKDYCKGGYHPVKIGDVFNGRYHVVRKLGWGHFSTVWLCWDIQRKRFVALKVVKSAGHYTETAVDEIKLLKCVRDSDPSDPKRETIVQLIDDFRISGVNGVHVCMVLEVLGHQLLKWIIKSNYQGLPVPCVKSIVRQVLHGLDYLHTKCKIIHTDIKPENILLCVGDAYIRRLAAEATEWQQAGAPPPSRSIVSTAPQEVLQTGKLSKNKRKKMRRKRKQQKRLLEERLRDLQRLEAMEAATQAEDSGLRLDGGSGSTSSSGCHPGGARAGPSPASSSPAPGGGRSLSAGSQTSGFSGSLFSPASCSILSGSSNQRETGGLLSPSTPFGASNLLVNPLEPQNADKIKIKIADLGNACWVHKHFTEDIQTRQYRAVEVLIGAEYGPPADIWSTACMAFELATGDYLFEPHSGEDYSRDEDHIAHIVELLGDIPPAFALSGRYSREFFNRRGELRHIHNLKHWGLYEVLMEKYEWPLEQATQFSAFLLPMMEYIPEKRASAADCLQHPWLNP

% of control SRPK3 binding (SRPK3): 25% | % of control remaining TAK1 binding (TAK1): 22% | % of control SYK (SYK): 1% | % of control (KIT(D816V)): 0.45% | RET binding, % of control (RET): 32% | Percent of control (KIT(V559D,T6701)): 28% | % of control binding MKNK2 (MKNK2): 34% | % of control PDGFRB (PDGFRB): 1.8%
Compound: Cc1cc(C)cc(Nc2ncc(F)c(-n3cc(C)c(CN4CC[C@@H](O)C4)c3)n2)c1 [Compound 82, (R)-1-((1-(2-(3,5-dimethylphenyl-amino)-5-fluoropyrimidin-4-yl)-4-methyl-1H-pyrrol-3-yl)methyl) pyrrolidin-3-ol]
inhibition at 0.3 µM ([1]; Homo sapiens, THP-1 cells, IgG stimulation, 0.3 μM, 18-hour incubation): 49.2% | inhibition at 1 µM ([1]; Homo sapiens, THP-1 cells, IgG stimulation, 1 μM, 18-hour incubation): 91.4% | percentage inhibition of TNF-α release compared with R406 ([1]; IgG stimulated release, 0.3 μM): greater that those exhibited by R406
